According to patent US20260232707A1, “METABOLIC INHIBITORS AND METHODS OF MAKING AND USING THEREOF” (UNIVERSITY OF MIAMI, priority 2023, published 2026):
Entries after “also recorded” stand apart in the source; their conditions may differ.

How the values were obtained:
[1] = system: 4T1 breast cancer cell line; assay: Seahorse glycostress assay (ECAR); format: cell-based, murine; settings: 4T1 cells, 6 h; for glycolysis inhibition (ECAR): compared with control group; for glycolytic inhibitory properties compared to NaDCA: 200 μM vs NaDCA 600 μM
Text: FIGS. 3A-3C show cellular glycolysis inhibition by Mito-SilylDCA. Glycolytic inhibition efficacy of Mito-SilylDCA was investigated along with the components used for synthesizing Mito-SilylDCA. (FIG. 3A) Chemical structures of TPP-(CH2)5—COOH), methoxyl(octadecyldimethyl)silane, sodium dichloroacetate (NaDCA), Mito-DCA, and Mito-SilylDCA. (FIG. 3B) Extracellular acidification rate (ECAR) measured in 4T1, murine breast cancer cell line, upon treatment with the compounds mentioned in A. The cells were pre-treated with the test articles at the following concentration: TPP-(CH2)5—COOH (200 μM), methoxy (octadecyldimethyl)silane (200 μM), NaDCA (600 μM), Mito-DCA (200 μM), or Mito-Silyl-DCA (200 μM), for 6 h. Port injections for the seahorse glycostress assay included glucose (10 mM) in port A, oligomycin (1 μM) in port B, and 2-DG (50 mM) in port C. (FIG. 3C) Graphical representation quantifying the change in glycolysis, glycolytic capacity, and glycolytic reserve parameters upon treatment with test articles. The data in FIG. 3C was generated as an average from 3 independent biological replicates. The statistical significance between the treatment groups was measured by ordinary one-way analysis of variance (ANOVA) using multiple comparison.
Cellular glycolysis inhibition by Mito-SilylDCA. Glycolysis inhibitory efficacy of Mito-Silyl-DCA was investigated in 4T1 breast cancer cell line which is known to be aggressive and highly glycolytic in nature with an overexpression of PDK1.^6 The Seahorse glycostress assay was performed to understand the metabolic fluxes of glycolysis. The 4T1 cells grown in normoxia were treated with TPP-(CH2)5—COOH) (200 μM), methoxyl(octadecyldimethyl)silane (200 μM), NaDCA (600 μM), Mito-DCA (200 μM), or Mito-Silyl-DCA (200 μM) for 6 h followed by washing and returning the cells to a glucose-free medium (FIG. 3A). The extracellular acidification rate (ECAR) traces were then monitored in response to the sequential administration of glucose, oligomycin, and 2-deoxy-D-glucose (2-DG) to assess glycolysis, glycolytic capacity, and glycolytic reserve, respectively. […] The data shown here are average from three independent biological replicates.
Glycolysis inhibition in highly glycolytic cells. This example documented inhibition of glycolysis in 4T1 cells by Mito-SilylDCA using Seahorse glycostress assay (FIG. 3B). The Seahorse glycostress assay was performed to check the metabolic fluxes of glycolysis. 4T1 cells were treated with TPP-hexanoic acid (200 μM), methoxyl(octadecyldimethyl)silane (200 μM), sodium dichloroacetate (DCA) (600 μM), Mito-DCA (200 μM), or Mito-SilylDCA (200 μM) for 6 h followed by washout and returned to glycose-free medium. The extracellular acidification rate (ECAR) was monitored in response to the sequential administration of glucose, oligomycin, and 2-deoxy-D-glucose (2-DG) to assess glycolysis, glycolytic capacity, and glycolytic reserve, respectively (FIG. 3C).

[2] = Stability at different pH values by HPLC and LC-MS (Example 1); format: physicochemical; settings: for degradation / stability at acidic pH: acidic pH (4.0); for stability in alkaline conditions: alkaline conditions (pH 9.5); for stability in alkaline conditions / hydrolysis in neutral conditions: DMF-water (2/1, v/v), room temperature; for hydrolysis in neutral conditions: neutral conditions (pH 7.4)
Procedure: FIGS. 2A-2B. Stability of Mito-SilylDCA at different pH values. Traces of HPLC plots of (FIG. 2A) Mito-SilylDCA and (FIG. 2B) Mito-DCA in solutions of different pH values along with plots of percent of the compound remained with time. A solution of Mito-SilylDCA or Mito-DCA in DMF-water (2/1, v/v) was incubated for different times (12 h, 24 h, and 48 h) at different pH environments (4.0, 7.4, and 9.5) at room temperature.
Stability of Mito-SilylDCA. A combination of HPLC and LC-MS analytical techniques were employed to understand the stability of Mito-SilylDCA in different physiological environments. A solution of Mito-SilylDCA or Mito-DCA in DMF-water (2/1, v/v) was incubated for 12, 24, and 48 h at different pH environments of 4.0, 7.4, and 9.5 at room temperature and the degradation behavior of the compounds was analyzed with HPLC and LC-MS (FIGS. 2A and 2B). […] After 12 h, more than 60% of compounds are decomposed at pH 7.4, which should be due to the hydrolysis of DCA and the silyl chain. […] Both Mito-DCA and Mito-SilylDCA were unstable in alkaline conditions and the compounds decomposed easily. […] The better stability of Mito-SilylDCA compared to Mito-DCA would be beneficial for the long-term storage and further application in biological environment.

[3] = Chemical stability at different pH by HPLC and LC-MS (Example 2); format: physicochemical; settings: DMF/water (1/1, v/v), 24 h, pH 4.5, 5.5, 6.5, 7.4, 8.5, room temperature
Procedure: Stability of Mito-SilylDCA. With Mito-SilylDCA in hand, the chemical stability was checked to ensure the efficacy of drug in different physiological environments. A mixed solution of Mito-SilylDCA in DMF/water (1/1, v/v) was incubated for 24 h in different pH environment (4.5, 5.5, 6.5, 7.4, 8.5) at room temperature. Then the solutions were measured with HPLC and LC-MS to check the degradation behavior of the compounds.

[4] = mouse, in vivo
Procedure: Thus, the experiment investigated the efficacy of T-Mito-SilylDCA-NPs in an in vivo mouse model in combination with a cisplatin prodrug, Platin-M^20-21. […] Thus for this study, luciferase tagged MDA-MB-231BR^Luc cells in Balb/c nude mice were used. The experiment implanted MDA-MB-231BR^Luc cells in the right flank of N=7 female Balb/c nude mice (FIG. 5A). […] Once the tumors were established, these animals were treated with a combination of T-Platin-M-NP and T-Mito-SilylDCA-NP in a sequential manner to inhibit first OXPHOS with T-Platin-M-NP^20 and simultaneous inhibition of resulting glycolysis T-Mito-SilylDCA-NP. This study included two groups: Group 1, saline with n=3 animals and group 2, combination of T-Platin-M-NPs and T-Mito-SilylDCA-NPs with n=4 animals (FIG. 5A). The tumor bearing animals were treated with saline or combination therapeutics for 4 weeks following a biweekly treatment regimen which involved tail i.v injections of 10 mg/kg dose of T-Platin-M-NP with respect to Platin-M 24 h prior to 30 mg/kg dose of T-Mito-Silyl-DCA-NP with respect to Mito-SilylDCA. […] All the images were taken at the same aperture and field of view was kept at 22.4 cm. […]
The present study administered T-Mito-SilylDCA to mice via intravenous injection and quantified the accumulation of NPs using ICP-MS analyses.

SMILES	glycolysis inhibition (ECAR) ([1]; 200 μM)	decomposition compared with Mito-DCA ([2]; acidic conditions (pH 4.0), period of 24 h)	degradation / stability at acidic pH [2]	stability in alkaline conditions [2]	hydrolysis in neutral conditions [2]	glycolytic inhibitory properties compared to NaDCA [1]	glycolysis inhibition capability compared to Mito-DCA ([1]; 200 μM)	chemical stability [3]	accumulation in the tumor [4]	biodistribution: organs in which present [4]
CCCCCCCCCCCCCCCCCC[Si](C)(C)OC [methoxyl(octadecyldimethyl)silane, reference compound]	No detectable changes in glycolysis levels	–	–	–	–	–	–	–	–	–
CCCCCCCCCCCCCCCCCC[Si](C)(C)OCC(COC(=O)C(Cl)Cl)(COC(=O)C(Cl)Cl)NC(=O)CCCCC[P+](c1ccccc1)(c1ccccc1)c1ccccc1 [Mito-SilylDCA]	significant inhibition of glycolysis	slower than Mito-DCA	relatively slow degradation; also recorded: most stable at an acidic pH	unstable	hydrolyzed in a short time	significantly higher	not significantly decreased	stable in neural and weak acidic conditions	a significant portion of Mito-SilylDCA accumulated in the tumor	liver, tumor mass, brain, kidney, and spleen
O=C(CCCCC[P+](c1ccccc1)(c1ccccc1)c1ccccc1)NC(COC(=O)C(Cl)Cl)(COC(=O)C(Cl)Cl)COC(=O)C(Cl)Cl [Mito-DCA, reference compound]	significant glycolysis inhibition	–	relatively slow degradation	unstable	hydrolyzed in a short time	significantly higher	–	–	–	–
O=C(O)CCCCC[P+](c1ccccc1)(c1ccccc1)c1ccccc1.[Br-] [TPP-(CH2)5—COOH), (5-carboxypentyl)triphenylphosphonium bromide, reference compound]	No detectable changes in glycolysis levels	–	–	–	–	–	–	–	–	–
